From US11040028B2, “Penicinotam derivative, preparation method and use thereof” (OCEAN UNIVERSITY OF CHINA, priority 2017, dated 2021)

Columns and labels:
Format in all cases: cell-based
[1] = test system: human fibrosarcoma cells HT-1080; experiment: Anti-fibrosis activity test: inhibition of proliferation of human fibrosarcoma cells HT-1080 (CCK-8); details: Homo sapiens, HT-1080, 48 h
Outline: (§1)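 Proliferation read by CCK-8 (2 h, A450) after 48 h compound treatment of cells plated at 2×10^4 cells/mL and allowed 24 h attachment, triplicate per concentration. Inhibition rate derived from absorbance relative to untreated blank, with IC50 fitted; pirfenidone as positive control.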

[2] = test system: human embryonic lung fibroblast IMR-90; experiment: Anti-fibrosis activity test: inhibition of proliferation of human embryonic lung fibroblast IMR-90 (CCK-8)
Outline: as §1

[3] = test system: cardiac fibroblast RAT-iCell-C002; experiment: Anti-fibrosis activity test: inhibition of proliferation of cardiac fibroblast RAT-iCell-C002 (CCK-8); details: Cardiac fibroblast, 48 h
Outline: as §1

[4] = test system: human hepatic stellate cells LX-2; experiment: Anti-fibrosis activity test: inhibition of proliferation of human hepatic stellate cells LX-2 (CCK-8); details: Homo sapiens, 48 h
Outline: as §1

[5] = test system: mouse macrophages (RAW264.7); experiment: Lipopolysaccharide-induced NO secretion in macrophages (Griess); details: Mus musculus, RAW264.7, 24 h, RAW264.7, LPS 1 μg/ml, a/b isomers given as first/second symbol, read-out: IC50 (μM), inhibition of lipopolysaccharide-induced NO secretion in macrophages
Outline: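 Percent inhibition of NO release was measured by Griess absorbance at 548 nm in supernatants. Cells were mouse RAW264.7 macrophages in 10% FBS DMEM, treated with graded compound concentrations and activated by LPS (1 μg/ml) for 24 h.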

BHK-21 cells = experiment: Anti-fibrosis activity test: inhibition of BHK-21 cell proliferation (CCK-8); details: Mesocricetus auratus, BHK-21, 48 h
Outline: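 Each concentration was tested in triplicate on adhered BHK-21 cells for 48 h, with pirfenidone as reference. A 2 h CCK-8 incubation preceded absorbance reading at 450 nm, and IC50 was obtained from percent inhibition versus blank.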

[6] = test system: human lung fibroblasts HFL1; experiment: Anti-fibrosis activity test: inhibition of proliferation of human lung fibroblasts HFL1 (CCK-8); details: Homo sapiens, HFL1, 48 h
Outline: as §1

[7] = test system: human dermal fibroblasts CCC-ESF-1; experiment: Anti-fibrosis activity test: inhibition of proliferation of human dermal fibroblasts CCC-ESF-1 (CCK-8); details: Fibroblast
Outline: as §1

NF-κB = experiment: Immunological activity test: inhibition of NF-κB activity; details: initial concentration of 30 μM; a/b isomers given as first/second symbol; read-out: IC50 (μM), inhibitory activity against NF-κB
Outline: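 Each compound is tested at 30 μM for its ability to suppress NF-κB signalling. Parthenolide runs alongside as the positive control, and the data are then analysed to give IC50 values.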

[8] = Homo sapiens, IMR-90 cells, 48 h, CCK-8
[9] = Homo sapiens, CCC-ESF-1 cells, 48 h, CCK-8
[10] = human fibrosarcoma cells HT-1080, CCK-8, 48 hours
[11] = human embryonic lung fibroblast IMR-90, CCK-8, 48 hours
[12] = cardiac fibroblast RAT-iCell-C002, CCK-8, 48 hours
[13] = human hepatic stellate cells LX-2, CCK-8, 48 hours
[14] = CCK-8, 48 hours after administration
[15] = human lung fibroblasts HFL1, CCK-8, 48 hours
[16] = human dermal fibroblasts CCC-ESF-1, CCK-8, 48 hours

Structure (SMILES) | IC50 ([1]; HT-1080 cells, 48 h, CCK-8) [mM] | IC50 [2, 8] [mM] | IC50 ([3]; RAT-iCell-C002 cells, CCK-8) [mM] | IC50 ([4]; LX-2, 48 h, LX-2 cells, CCK-8) [mM] | IC50 [5] [µM] | IC50 (BHK-21 cells; 48 h, CCK-8) [mM] | IC50 ([6]; HFL1 cells, 48 h, CCK-8) [mM] | IC50 [7, 9] [mM] | IC50 (NF-κB) [µM] | IC50 [1, 10] [mM] | IC50 [2, 11] [mM] | IC50 [3, 12] [mM] | IC50 [4, 13] [mM] | IC50 (BHK-21 cells; [14]) [mM] | IC50 [6, 15] [mM] | IC50 [7, 16] [mM]
Cc1ccc(C)c2c(=O)c3c([nH]c12)-c1cccn1C3=O [Compound 772a, 5,8-Dimethyl-9H-pyrrolizino[1,2-b]quinoline-9,10(4H)-dione] | 0.05 to 5 | 0.05 to 5 | 0.05 to 5 | 0.05 to 5 | 1 to 10 | < 0.05 | 0.05 to 5 | 0.05 to 5 | 1 to 10 | – | – | – | – | – | – | –
O=C1c2c([nH]c3ccc(C(F)(F)F)cc3c2=O)-c2cccn21 [Compound 282a, 7-(Trifluoromethyl)-9H-pyrrolizino[1,2-b]quinoline-9,10(4H)-dione] | – | – | – | – | 1 to 10 | – | – | – | 1 to 10 | 0.05 to 5 | 0.05 to 5 | 0.05 to 5 | 0.05 to 5 | 0.05 to 5 | 0.05 to 5 | 0.05 to 5
O=C1c2c(nc3cc(N4CCNCC4)ccc3c2O)-c2cccn21 [Compound 319b, 9-Hydroxy-6-(piperazin-1-yl)-10H-pyrrolizino[1,2-b]quinolin-10-one] | – | – | – | – | 1 to 10 | – | – | – | 1 to 10 | 0.05 to 5 | 0.05 to 5 | 0.05 to 5 | 0.05 to 5 | 0.05 to 5 | 0.05 to 5 | < 0.05
O=C1c2c(n(CCc3ccccc3)c3ccc(F)cc3c2=O)-c2cccn21 [Compound 141a, 7-Fluoro-4-phenethyl-9H-pyrrolizino[1,2-b]quinoline-9,10(4H)-dione] | – | – | – | – | 1 to 10 | – | – | – | 1 to 10 | 0.05 to 5 | 0.05 to 5 | 0.05 to 5 | 0.05 to 5 | 0.05 to 5 | 0.05 to 5 | < 0.05
O=C1c2c([nH]c3cc(OC(F)(F)F)ccc3c2=O)-c2cccn21 [Compound 548a, 6-(Trifluoromethoxy)-9H-pyrrolizino[1,2-b]quinoline-9,10(4H)-dione] | – | – | – | – | 10 to 50 | – | – | – | 0.1 to 1 | 0.05 to 5 | 0.05 to 5 | 0.05 to 5 | < 0.05 | 0.05 to 5 | 0.05 to 5 | 0.05 to 5
O=C1c2c(n(Cc3cccc([N+](=O)[O-])c3)c3ccccc3c2=O)-c2cccn21 [Compound 583a, 4-(3-Nitrobenzyl)-9H-pyrrolizino[1,2-b]quinoline-9,10(4H)-dione] | – | – | – | – | 1 to 10 | – | – | – | 1 to 10 | 0.05 to 5 | 0.05 to 5 | 0.05 to 5 | 0.05 to 5 | 0.05 to 5 | 0.05 to 5 | 0.05 to 5
O=C1c2c(nc3c(F)cccc3c2O)-c2cccn21 [Compound 444b, 5-fluoro-9-hydroxy-10H-pyrrolizino[1,2-b]quinolin-10-one] | – | – | – | – | 1 to 10 | – | – | – | 1 to 10 | 0.05 to 5 | 0.05 to 5 | 0.05 to 5 | 0.05 to 5 | 0.05 to 5 | 0.05 to 5 | 0.05 to 5
CS(=O)(=O)CCCOc1c2c(nc3ccccc13)-c1cccn1C2=O [Compound 659b, 9-(3-(methylsulfonyl)propoxy)-10H-pyrrolizino[1,2-b]quinolin-10-one] | – | – | – | – | 1 to 10 | – | – | – | 1 to 10 | 0.05 to 5 | 0.05 to 5 | 0.05 to 5 | 0.05 to 5 | 0.05 to 5 | 0.05 to 5 | 0.05 to 5
N#Cc1ccc2[nH]c3c(c(=O)c2c1)C(=O)n1cccc1-3 [Compound 222a, 9,10-Dioxo-4,10-dihydro-9H-pyrrolizino[1,2-b]quinoline-7-carbonitrile] | – | – | – | – | 1 to 10 | – | – | – | 1 to 10 | 0.05 to 5 | 0.05 to 5 | 0.05 to 5 | 0.05 to 5 | 0.05 to 5 | 0.05 to 5 | 0.05 to 5
C#CCOc1c2c(nc3ccccc13)-c1cccn1C2=O [Compound 7b, 9-(prop-2-yn-1-yloxy)-10H-pyrrolizino[1,2-b]quinolin-10-one] | – | – | – | – | 0.1 to 1 | – | – | – | 1 to 10 | 0.05 to 5 | 0.05 to 5 | 0.05 to 5 | 0.05 to 5 | 0.05 to 5 | 0.05 to 5 | < 0.05
O=C(O)COc1c2c(nc3ccccc13)-c1cccn1C2=O [Compound 100b, 2-((10-oxo-10H-pyrrolizino[1,2-b]quinolin-9-yl)oxy)acetic acid] | – | – | – | – | 1 to 10 | – | – | – | 1 to 10 | 0.05 to 5 | 0.05 to 5 | 0.05 to 5 | 0.05 to 5 | 0.05 to 5 | 0.05 to 5 | 0.05 to 5
O=C1c2c(nc3ccccc3c2OCc2ccc(OC(F)(F)F)cc2)-c2cccn21 [Compound 592b, 9-((4-(trifluoromethoxy)benzyl)oxy)-10H-pyrrolizino[1,2-b]quinolin-10-one] | – | – | – | – | 1 to 10 | – | – | – | 1 to 10 | 0.05 to 5 | 0.05 to 5 | 0.05 to 5 | 0.05 to 5 | 0.05 to 5 | 0.05 to 5 | 0.05 to 5
O=C1c2c([nH]c3cccc(Cl)c3c2=O)-c2cccn21 [Compound 464a, 8-Chloro-9H-pyrrolizino[1,2-b]quinoline-9,10(4H)-dione] | – | – | – | – | 1 to 10 | – | – | – | 1 to 10 | 0.05 to 5 | 0.05 to 5 | 0.05 to 5 | 0.05 to 5 | < 0.05 | < 0.05 | 0.05 to 5
CS(=O)(=O)n1c2c(c(=O)c3ccccc31)C(=O)n1cccc1-2 [Compound 650a, 4-(Methylsulfonyl)-9H-pyrrolizino[1,2-b]quinoline-9,10(4H)-dione] | – | – | – | – | 1 to 10 | – | – | – | 1 to 10 | 0.05 to 5 | 0.05 to 5 | 0.05 to 5 | 0.05 to 5 | < 0.05 | 0.05 to 5 | 0.05 to 5
O=C1c2c(n(Cc3cc(F)c(F)c(F)c3F)c3ccccc3c2=O)-c2cccn21 [Compound 587a, 4-(2,3,4,5-Tetrafluorobenzyl)-9H-pyrrolizino[1,2-b]quinoline-9,10(4H)-dione] | – | – | – | – | 1 to 10 | – | – | – | 1 to 10 | 0.05 to 5 | 0.05 to 5 | 0.05 to 5 | 0.05 to 5 | 0.05 to 5 | 0.05 to 5 | 0.05 to 5
CC(C)=CCOc1c2c(nc3ccc(F)cc13)-c1cccn1C2=O [Compound 112b, 7-fluoro-9-((3-methylbut-2-en-1-yl)oxy)-10H-pyrrolizino[1,2-b]quinolin-10-one] | – | – | – | – | 1 to 10 | – | – | – | 1 to 10 | 0.05 to 5 | 0.05 to 5 | 0.05 to 5 | 0.05 to 5 | 0.05 to 5 | 0.05 to 5 | 0.05 to 5
CCOC(=O)/C=C/COc1c2c(nc3ccccc13)-c1cccn1C2=O [Compound 661b, ethyl (E)-4-((10-oxo-10H-pyrrolizino[1,2-b]quinolin-9-yl)oxy)but-2-enoate] | – | – | – | – | 1 to 10 | – | – | – | 1 to 10 | 0.05 to 5 | 0.05 to 5 | 0.05 to 5 | 0.05 to 5 | 0.05 to 5 | 0.05 to 5 | 0.05 to 5
O=C1c2c(n(Cc3cc(F)cc(F)c3)c3ccccc3c2=O)-c2cccn21 [Compound 579a, 4-(3,5-Difluorobenzyl)-9H-pyrrolizino[1,2-b]quinoline-9,10(4H)-dione] | – | – | – | – | 1 to 10 | – | – | – | 0.1 to 1 | 0.05 to 5 | 0.05 to 5 | 0.05 to 5 | 0.05 to 5 | 0.05 to 5 | 0.05 to 5 | 0.05 to 5
Cc1ccc(C)c2c(O)c3c(nc12)-c1cccn1C3=O [Compound 772b, 9-hydroxy-5,8-dimethyl-10H-pyrrolizino[1,2-b]quinolin-10-one] | 0.05 to 5 | 0.05 to 5 | 0.05 to 5 | 0.05 to 5 | 1 to 10 | 0.05 to 5 | 0.05 to 5 | 0.05 to 5 | 0.1 to 1 | – | – | – | – | – | – | –
